Data as given in patent US20250072421A1, “ARYL DIHYDROPYRAN DERIVATIVE OR SALT THEREOF, PEST CONTROL AGENT CONTAINING SAME, AND METHOD FOR USE THEREOF” (ADEKA Corporation, priority 2021, published 2025).

Key:
Laodelphax striatellus = test: Insecticidal test against Laodelphax striatellus; settings: 500 ppm drug solution, rice seedlings immersed 30 seconds, three-instar insects, eight days after inoculation
[1] = system: Frankliniella occidentalis; test: Insecticidal test against Frankliniella occidentalis; settings: 500 ppm drug solution sprayed on Phaseolus vulgaris leaf pieces with hatched larvae, four days after treatment
Plutella xylostella = test: Insecticidal test against Plutella xylostella; settings: 500 ppm drug solution, Chinese cabbage seedlings with eggs immersed about 30 sec, six days after immersion, 25° C.
Dirofilaria immitis = test: Influence evaluation test on the growth of Dirofilaria immitis; assay type: cell-based; settings: 168 h, read-out: development inhibition rate from the L3 stage larva to the L4-stage larva

SMILES | rating of assessment (corrected mortality) against Plutella xylostella (Plutella xylostella) | other results
O=C(Nc1ccc(F)cc1)C1=C(O)CC(c2ccc(C(F)(F)F)nc2)OC1=O (centres unmarked) [1-21] | D or higher | rating of assessment (corrected mortality) against Laodelphax striatellus (Laodelphax striatellus): D or higher; rating of assessment (corrected mortality) against Frankliniella occidentalis [1]: D or higher
O=C(Nc1ccc(F)cc1)C1=C(O)CC(c2ccc3c(c2)OCO3)OC1=O (centres unmarked) [1-103] | D or higher | –
O=C(Nc1ccc(Cl)cc1)C1=C(O)CC(c2ccc(C(F)(F)F)cc2)OC1=O (centres unmarked) [1-5] | D or higher | –
O=C(NC1CC1)C1=C(O)CC(c2ccc(C(F)(F)F)cc2)OC1=O (centres unmarked) [1-74] | D or higher | –
COc1ccccc1C1CC(O)=C(C(=O)Nc2ccc(SC(F)(F)F)cc2)C(=O)O1 (centres unmarked) [1-132] | D or higher | –
COc1ccc(NC(=S)C2=C(O)CC(c3ccc(C(F)(F)F)cc3)OC2=O)cc1 (centres unmarked) [1-31] | D or higher | –
O=C(Nc1ccc(F)cc1)C1=C(O)CC(c2ccc(OC(F)(F)F)cc2)OC1=O (centres unmarked) [1-86] | D or higher | –
O=C(Nc1ccc(Oc2ccccc2)cc1)C1=C(O)CC(c2ccc(C(F)(F)F)cc2)OC1=O (centres unmarked) [1-14] | D or higher | –
O=C(Nc1ccc(F)cc1)C1=C(O)CC(c2ccc(SC(F)(F)F)cc2)OC1=O (centres unmarked) [1-135] | D or higher | –
N#Cc1ccc(C2CC(O)=C(C(=O)Nc3ccc(F)cc3)C(=O)O2)cc1 (centres unmarked) [1-97] | D or higher | –
O=C1OC(c2ccc(C(F)(F)F)cc2)C2(CCCCC2)C(O)=C1C(=S)Nc1ccc(F)cc1 (centres unmarked) [1-68, N-(4-fluorophenyl)-5-hydroxy-3-oxo-1-(4-(trifluoromethyl)phenyl)-2-oxaspiro[5.5]undec-4-en-4-carbothioamide] | – | inhibition at 10 µM (Dirofilaria immitis): ≥ 50%
O=C(Nc1ccc(F)cn1)C1=C(O)CC(c2ccc(C(F)(F)F)nc2)OC1=O (centres unmarked) [1-76] | D or higher | rating of assessment (corrected mortality) against Laodelphax striatellus (Laodelphax striatellus): D or higher
C[S+]([O-])c1ccc(C2CC(O)=C(C(=O)Nc3ccc(F)cc3)C(=O)O2)cc1 (centres unmarked) [1-84] | D or higher | –
Cc1ccc(NC(=O)C2=C(O)CC(c3ccc(C(F)(F)F)cc3)OC2=O)cc1 (centres unmarked) [1-73] | D or higher | –
CC1(C)C(O)=C(C(=S)Nc2ccc(F)cn2)C(=O)OC1c1ccc(C(F)(F)F)cc1 (centres unmarked) [1-71] | – | rating of assessment (corrected mortality) against Laodelphax striatellus (Laodelphax striatellus): D or higher
O=C(Nc1ccc(F)cc1)C1=C(O)CC(c2ccc([N+](=O)[O-])cc2)OC1=O (centres unmarked) [1-107] | D or higher | –
O=C(Nc1ccc(F)cn1)C1=C(O)CC(c2ccc(C(F)(F)F)cc2)OC1=O (centres unmarked) [1-77] | D or higher | rating of assessment (corrected mortality) against Frankliniella occidentalis [1]: D or higher
O=C(Nc1ccc2c(c1)OCO2)C1=C(O)CC(c2ccc(C(F)(F)F)cc2)OC1=O (centres unmarked) [1-15] | D or higher | –
O=C(Nc1cccs1)C1=C(O)CC(c2ccc(C(F)(F)F)cc2)OC1=O (centres unmarked) [1-7] | D or higher | –
O=C(Nc1ccc(F)cc1)C1=C(O)CC(c2ccc(C(F)(F)F)c(Cl)c2)OC1=O (centres unmarked) [1-1, 6-(3-chloro-4-(trifluoromethyl)phenyl)-N-(4-fluorophenyl)-4-hydroxy-2-oxo-5,6-dihydro-2H-pyran-3-carboxamide] | D or higher | inhibition at 10 µM (Dirofilaria immitis): ≥ 50%
CC1(C)C(O)=C(C(=O)Nc2ccc(F)cc2)C(=O)OC1c1ccc(C(F)(F)F)cc1 (centres unmarked) [1-22] | D or higher | –
CS(=O)(=O)c1ccc(C2CC(O)=C(C(=O)Nc3ccc(F)cc3)C(=O)O2)cc1 (centres unmarked) [1-85] | D or higher | –
O=C(Nc1ccc(F)cc1)C1=C(O)CC(c2ccc(Cl)nc2)OC1=O (centres unmarked) [1-75] | D or higher | rating of assessment (corrected mortality) against Laodelphax striatellus (Laodelphax striatellus): D or higher; rating of assessment (corrected mortality) against Frankliniella occidentalis [1]: D or higher
COc1ccccc1C1CC(O)=C(C(=O)Nc2ccc(F)cc2)C(=O)O1 (centres unmarked) [1-131] | D or higher | –
O=C(Nc1ccc(F)cc1)C1=C(O)CC(c2cc(-c3ccccc3)no2)OC1=O (centres unmarked) [1-78] | D or higher | –
O=C(Nc1ccccc1)C1=C(O)CC(c2ccc(C(F)(F)F)cc2)OC1=O (centres unmarked) [1-6] | D or higher | –
CSc1ccc(C2CC(O)=C(C(=O)Nc3ccc(F)cc3)C(=O)O2)cc1 (centres unmarked) [1-83] | D or higher | –
CC1(C)C(O)=C(C(=S)Nc2ccc(F)cc2)C(=O)OC1c1ccc(C(F)(F)F)cc1 (centres unmarked) [1-67] | D or higher | –
